Reference: patent US10793565B2, “Heterocyclic compounds as immunomodulators” (Incyte Corporation, priority 2016, dated 2020)

Target: PD-1/PD-L1 protein/protein interaction (Homo sapiens (Human), UniProt Q9NZQ7)
Test: PD-1/PD-L1 Homogeneous Time-Resolved Fluorescence (HTRF) binding assay
Settings: recombinant human PD-L1 (19-238) His-tag, human PD-1 (25-167) Fc tag; 25° C., PBS pH 7.4
Protocol: Example A. PD-1/PD-L1 Homogeneous Time-Resolved Fluorescence (HTRF) Binding Assay
The assays were conducted in a standard black 384-well polystyrene plate with a final volume of 20 μL. Inhibitors were first serially diluted in DMSO and then added to the plate wells before the addition of other reaction components. The final concentration of DMSO in the assay was 1%. The assays were carried out at 25° C. in the PBS buffer (pH 7.4) with 0.05% Tween-20 and 0.1% BSA. Recombinant human PD-L1 protein (19-238) with a His-tag at the C-terminus was purchased from AcroBiosystems (PD1-H5229). Recombinant human PD-1 protein (25-167) with Fc tag at the C-terminus was also purchased from AcroBiosystems (PD1-H5257). PD-L1 and PD-1 proteins were diluted in the assay buffer and 10 μL was added to the plate well. Plates were centrifuged and proteins were preincubated with inhibitors for 40 minutes. The incubation was followed by the addition of 10 μL of HTRF detection buffer supplemented with Europium cryptate-labeled anti-human IgG (PerkinElmer-AD0212) specific for Fc and anti-His antibody conjugated to SureLight®-Allophycocyanin (APC, PerkinElmer-AD0059H). After centrifugation, the plate was incubated at 25° C. for 60 min. before reading on a PHERAstar FS plate reader (665 nm/620 nm ratio). Final concentrations in the assay were […], 10 nM PD-L1, 1 nM europium anti-human IgG and 20 nM anti-His-Allophycocyanin. IC50 determination was performed by fitting the curve of percent control activity versus the log of the inhibitor concentration using the GraphPad Prism 5.0 software.

Chain of PD-1/PD-L1 protein/protein interaction (Q9NZQ7 19-238): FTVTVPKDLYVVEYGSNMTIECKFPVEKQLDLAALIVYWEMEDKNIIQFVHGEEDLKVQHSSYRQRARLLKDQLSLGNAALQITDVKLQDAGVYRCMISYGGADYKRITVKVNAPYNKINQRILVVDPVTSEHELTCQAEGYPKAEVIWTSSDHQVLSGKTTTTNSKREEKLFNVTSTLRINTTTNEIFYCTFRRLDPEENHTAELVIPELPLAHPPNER

Compound | IC50 [nM]
Cc1c(NC(=O)c2ccc(CNCCO)cn2)cccc1-c1cccc(-c2nc3c(Cl)cc(CNCCO)cn3n2)c1C [Example 1, N-(3′-(8-chloro-6-((2-hydroxyethylamino)methyl)-[1,2,4]triazolo[1,5-a]pyridin-2-yl)-2,2′-dimethylbiphenyl-3-yl)-5-((2-hydroxyethylamino)methyl)picolinamide] | ≤ 10
Cc1c(-c2nc3c(Cl)cc(CNCCO)cn3n2)cccc1-c1cccc(NC(=O)c2ccc(CNCCO)cn2)c1Cl [Example 2, N-(2-chloro-3′-(8-chloro-6-((2-hydroxyethylamino)methyl)-[1,2,4]triazolo[1,5-a]pyridin-2-yl)-2′-methylbiphenyl-3-yl)-5-((2-hydroxyethylamino)methyl)picolinamide] | ≤ 10
Cc1c(-c2nc3c(C#N)cc(CNCCO)cn3n2)cccc1-c1cccc(NC(=O)c2ccc(CNCCO)cn2)c1Cl [Example 3, N-(2-chloro-3′-(8-cyano-6-((2-hydroxyethylamino)methyl)-[1,2,4]triazolo[1,5-a]pyridin-2-yl)-2′-methylbiphenyl-3-yl)-5-((2-hydroxyethylamino)methyl)picolinamide] | ≤ 10
Cc1c(-c2nc3c(Cl)cc(CNCCO)cn3n2)cccc1-c1cccc(-c2nc3c(s2)CNCC3)c1C [Example 4, 2-((8-chloro-2-(2,2′-dimethyl-3′-(4,5,6,7-tetrahydrothiazolo[5,4-c]pyridin-2-yl)biphenyl-3-yl)-[1,2,4]triazolo[1,5-a]pyridin-6-yl)methylamino)ethanol] | ≤ 10
